From patent US20210189342A1, “COMPOSITIONS AND METHODS FOR MODULATING MONOCYTE AND MACROPHAGE INFLAMMATORY PHENOTYPES AND IMMUNOTHERAPY USES THEREOF” (Verseau Therapeutics, Inc., priority 2018, published 2021)
pIC50: −log10 of the molar value.

Tested on: CD74
Assay: siRNA dose response, CD74 mRNA knockdown, bDNA Assay
Assay type: cell-based, human
Conditions: THP-1, 24 hr
Procedure: (§1) Dose response curves for siRNAs were generated in vitro using a variety of cell lines according to Table 4.
(§2) Briefly, cells were seeded in 96-well plates and reverse transfected with siRNA, Lipofectamine® 2000 (0.5 uL/well; ThermoFisher), and, in some cases, a reporter plasmid (50 ng/well). The reporter plasmid (psiCHECK™-2, Promega) encoded both firefly luciferase and the gene of interest fused to renilla luciferase; silencing of the gene of interest results in proportional silencing of renilla luciferase but leaves firefly luciferase unaffected as an internal control.
(§3) After 24 hr incubation at 37° C., mRNA knockdown was measured using an endpoint assay. For targets without a reporter plasmid, a branched DNA (bDNA) assay was performed according to the manufacturer's instructions (QuantiGene® Singleplex Gene Expression Assay, ThermoFisher) to measure both the target gene and GAPDH (housekeeping gene) mRNA. Data are plotted as siRNA concentration (nM) vs. remaining mRNA (ratio of target gene to GAPDH, normalized to mock siRNA-transfected cells). For targets with a reporter plasmid, a Dual-Glo® Luciferase Assay was performed according to the manufacturer's instructions (Promega) to measure firefly and renilla luciferase expression. Data are plotted as siRNA concentration (nM) vs. remaining mRNA (ratio of renilla to firefly luminescence, normalized to mock siRNA-transfected cells).
(§4) For all dose response curves, a 4-parameter logistic model was applied to determine the IC50 of each siRNA sequence (Table 5 and FIG. 2). Data shown in Table 5 and FIG. 2 represent the mean of quadruplicates, +/−standard deviation.

Substance | pIC50
XD-09223: siRNA targeting CD74 (sense 5'-ggAGcuGucGGGAaGAucAdTsdT-3'; antisense 5'-UGAUCUUCCCGAcAGCUCCdTsdT-3'; as printed in the source, key not given here) | 9.47
XD-09224: siRNA targeting CD74 (sense 5'-gcGcGAccuuAucuccAAcdTsdT-3'; antisense 5'-GUUGGAGAuAAGGUCGCGCdTsdT-3'; as printed in the source, key not given here) | 8.70
XD-09226: siRNA targeting CD74 (sense 5'-cuGGAcAAAcuGAcAGucAdTsdT-3'; antisense 5'-AGACUGUcAGUUUGUCcAGdTsdT-3'; RNA with 2'-O-methyl and phosphorothioate modifications, case key not given here, as printed in the source, key not given here) | 9.84
XD-09227: siRNA targeting CD74 (sense 5'-ggAAcuGGAGGAcccGucudTsdT-3'; antisense 5'-AGACGGGUCCUCcAGUUCCdTsdT-3'; RNA with 2'-O-methyl and phosphorothioate modifications, case key not given here, as printed in the source, key not given here) | 9.23
XD-09230: siRNA targeting CD74 (sense 5'-gacAAAccAAGucgGaacAdTsdT-3'; antisense 5'-UGUUCCGACUUGGUUUGUCdTsdT-3'; as printed in the source, key not given here) | 9.71
XD-09231: siRNA targeting CD74 (sense 5'-aaAccAAGucGGAacAGcAdTsdT-3'; antisense 5'-UGCUGUUCCGACUUGGUUUdTsdT-3'; RNA with 2'-O-methyl and phosphorothioate modifications, case key not given here, as printed in the source, key not given here) | 9.59
XD-09232: siRNA targeting CD74 (sense 5'-agcuAGAcAGAuccccGuudTsdT-3'; antisense 5'-AACGGGGAUCUGUCuAGCUdTsdT-3'; RNA with 2'-O-methyl and phosphorothioate modifications, case key not given here, as printed in the source, key not given here) | 9.13
XD-09235: siRNA targeting CD74 (sense 5'-ccAAuGuuuuccAcccAuAdTsdT-3'; antisense 5'-uAUGGGUGGAAAAcAUUGGdTsdT-3'; as printed in the source, key not given here) | 9.61

Tested on: CD48
Assay: siRNA dose response, CD48 mRNA knockdown, Dual-Glo Luciferase Assay
Assay type: cell-based, human
Conditions: Hepa1-6 + reporter plasmid, 24 hr
Procedure: as §1, §2, §3, §4

Substance | pIC50
XD-09720: siRNA targeting CD48 (sense 5'-cucuGGAAuuGcuacuGcudTsdT-3'; antisense 5'-AGcAGuAGcAAUUCcAGAGdTsdT-3'; as printed in the source, key not given here) | 10.92
XD-09721: siRNA targeting CD48 (sense 5'-cuAAccuGGuuuuauAcuudTsdT-3'; antisense 5'-AAGuAuAAAACcAGGUuAGdTsdT-3'; RNA with 2'-O-methyl and phosphorothioate modifications, case key not given here, as printed in the source, key not given here) | 11.05
XD-09722: siRNA targeting CD48 (sense 5'-cuuucGAccAGAAgAuuGudTsdT-3'; antisense 5'-AcAAUCUUCUGGUCGAAAGdTsdT-3'; RNA with 2'-O-methyl and phosphorothioate modifications, case key not given here, as printed in the source, key not given here) | 10.85
XD-09723: siRNA targeting CD48 (sense 5'-uccAGAAAAucuAaGuAcudTsdT-3'; antisense 5'-AGuACUuAGAUUUUCUGGAdTsdT-3'; as printed in the source, key not given here) | 10.52
XD-09724: siRNA targeting CD48 (sense 5'-gaAuccAAAuuuAaAGGcAdTsdT-3'; antisense 5'-UGCCUUuAAAUUUGGAUUCdTsdT-3'; as printed in the source, key not given here) | 10.26
XD-09725: siRNA targeting CD48 (sense 5'-cccAAGccuGucAucAAAAdTsdT-3'; antisense 5'-UUUUGAUGAcAGGCUUGGGdTsdT-3'; RNA with 2'-O-methyl and phosphorothioate modifications, case key not given here, as printed in the source, key not given here) | 10.66
XD-09726: siRNA targeting CD48 (sense 5'-acAAcuGuuAucugAAAcudTsdT-3'; antisense 5'-AGUUUcAGAuAAcAGUUGUdTsdT-3'; as printed in the source, key not given here) | 10.77
XD-09727: siRNA targeting CD48 (sense 5'-ccuGGcGAGucuGuAAAcudTsdT-3'; antisense 5'-AGUUuAcAGACUCGCcAGGdTsdT-3'; as printed in the source, key not given here) | 10.34
XD-09728: siRNA targeting CD48 (sense 5'-cuGGcGAGucuGuaAAcuAdTsdT-3'; antisense 5'-UagUUuAcAGACUCGCcAGdTsdT-3'; as printed in the source, key not given here) | 10.49
XD-09729: siRNA targeting CD48 (sense 5'-uguuAuAcuuGccaAGucAdTsdT-3'; antisense 5'-UGACUUGGcAAGuAuAAcAdTsdT-3'; as printed in the source, key not given here) | 10.82

Tested on: SIGLEC7
Assay: siRNA dose response, SIGLEC7 mRNA knockdown, Dual-Glo Luciferase Assay
Assay type: cell-based, human
Conditions: Hepa1-6 + reporter plasmid, 24 hr
Procedure: as §1, §2, §3, §4

Substance | pIC50
XD-10600: siRNA targeting SIGLEC7 (sense 5'-agAGuAAccGGAAgCAuusa-3'; antisense 5'-dTAAUCCUUCCGGUUACUCUusu-3'; RNA with 2'-O-methyl and phosphorothioate modifications, case key not given here, as printed in the source, key not given here) | 9.81
XD-10601: siRNA targeting SIGLEC7 (sense 5'-gaGuAACcGGAAGgAuuasa-3'; antisense 5'-dTUAAUCCUUCCGGUuACUCusu-3'; RNA with 2'-O-methyl and phosphorothioate modifications, case key not given here, as printed in the source, key not given here) | 9.90
XD-10602: siRNA targeting SIGLEC7 (sense 5'-guAAccGGAAGGAuuAcusa-3'; antisense 5'-dTAGuAAUCCUUCCGGUuACusu-3'; RNA with 2'-O-methyl and phosphorothioate modifications, case key not given here, as printed in the source, key not given here) | 8.45
XD-10603: siRNA targeting SIGLEC7 (sense 5'-cgGAAGGAuuAcucGcugsa-3'; antisense 5'-dTCAGCGAGuAAUCCUUCCGusu-3'; RNA with 2'-O-methyl and phosphorothioate modifications, case key not given here, as printed in the source, key not given here) | 10.54
XD-10604: siRNA targeting SIGLEC7 (sense 5'-ggAAGGAuuAcucgcuGasa-3'; antisense 5'-dTUcAGCGAGuAAUCCUUCCusu-3'; RNA with 2'-O-methyl and phosphorothioate modifications, case key not given here, as printed in the source, key not given here) | 10.49
XD-10605: siRNA targeting SIGLEC7 (sense 5'-ggAuuACucGcuGacGAusa-3'; antisense 5'-dTAUCGUcAGCGAGUAAUCCusu-3'; RNA with 2'-O-methyl and phosphorothioate modifications, case key not given here, as printed in the source, key not given here) | 10.66
XD-10606: siRNA targeting SIGLEC7 (sense 5'-ccGuGcAAGAGGGcAuGusa-3'; antisense 5'-dTAcAUGCCCUCUUGcACGGusu-3'; RNA with 2'-O-methyl and phosphorothioate modifications, case key not given here, as printed in the source, key not given here) | 10.35
XD-10607: siRNA targeting SIGLEC7 (sense 5'-cgGGcAGGGAAuGauAuasa-3'; antisense 5'-dTUAuAUcAUUCCCUGCCCGusu-3'; as printed in the source, key not given here) | 10.41
XD-10608: siRNA targeting SIGLEC7 (sense 5'-gcAGGGAAuGAuAuAAGcsa-3'; antisense 5'-dTGCUuAuAUcAUUCCCUGCusu-3'; as printed in the source, key not given here) | 10.25
XD-10609: siRNA targeting SIGLEC7 (sense 5'-ggAAuGAuAuAAGcuGGasa-3'; antisense 5'-dTUCcAGCUuAuAUCAUUCCusu-3'; as printed in the source, key not given here) | 10.23
